Structures can show the parent of a compound that is named as a salt.
Assays:
[1] = test system: soybeans (Glycine max) Adelphia variety; assay: Increasing axillary branching and improving the canopy of broad leaf plants (soybeans); type: in vivo, soybean (Glycine max); conditions: three weeks after treatment
Source text: In these tests seedling soybean plants approximately three weeks old, and grown in plastic pots to the 2nd to 3rd trifoliate stage, are sprayed with solutions or dispersions of test compound prepared as described in Example 7 above. The same spraying apparatus, described in Example 7 above, is used and after spraying the plants are placed on greenhouse benches and watered and fertilized. Three weeks after treatment the plants are examined to determine what effect the application of test compound has had on the axillary branching and canopy development of the treated plants.
Increased axillary branching and improved canopy are biological responses which are highly advantageous in the growing of ornamental plants. These responses also have advantage in many crops since increased branching may result in the greater production of fruit, while improved canopy tends to shade and suppress the growth of undesirable weeds that compete with the crops for sunlight, water and plant nutrients. Data obtained are reported in table VII below where axillary branching and canopy are reported as percent increase over untreated controls.

[2] = test system: soybean (Glycine max) Adelphia; assay: Dwarfing and stem stiffening of soybeans (plant height, greenhouse, foliar spray); type: in vivo; conditions: three weeks after spraying
Experimental: (§1) In the following tests, test compounds are dissolved or dispersed in acetone-water (1:1) mixtures at the final concentration corresponding to the kg/ha rates indicated in the table below. The solution also contains 0.25% v/v colloidal BIOFILM® (a product of Colloidal Products Corp.) which is a mixture of alkyl aryl polyethoxyethanol, free and combined fatty acids, glycol ethers, dialkylbenzene carboxylate and 2-propanol.
(§2) The plant species used in these tests are barley (Hordeum vulgare), (Mexico) and soybean (Glycine max)Adelphia.
(§3) The solution or dispersion of the compound under test is sprayed at a rate of 747 l/ha with a moving nozzle along an overhead stationary track. The spray nozzle moves at a constant speed over the plants.
(§4) The plants are grown in plastic pots, and are well established at the time of treatment. The seedlings of barley are 10 to 20 cm in height, while the seedlings of soybeans are at the second to third trifoliate stage. Plants are watered prior to treatment and then sprayed to provide the kg/ha rate of test compound desired. After spraying the plants are placed on greenhouse benches and watered and fertilized in accordance with normal greenhouse procedures.
(§5) Three weeks after spraying the plants are measured and harvested. Harvesting is done at the boot stage. All treatments are replicated six times and comparisons are made against untreated controls. Data obtained are reported in Table VI below as percent reduction in plant height over untreated controls.

[3] = test system: soybeans (Glycine max) var. Adelphia; assay: Increasing flowering of plants (soybeans); type: in vivo, soybean (Glycine max); conditions: three weeks after spraying
Experimental: In the following tests seedling soybean plants growing in plastic cups are sprayed with aqueous-acetone solutions or dispersions of test compounds when they have reached the 2nd to 3rd trifoliate stage. Test solutions or dispersions are prepared with 0.25 v/v Colloidal BIOFILM® surfactant and sufficient test compound to provide the plants with 0.5, 0.25, 0.125 or 0.06 kg/ha of said compound when the test solutions are sprayed on said plants from an overhead sprayer delivering 747 l/ha of solution.
After spraying the plants are placed on greenhouse benches and watered and fertilized. Three weeks after spraying the plants are examined and the amount of flowering determined for all plants. Data obtained are reported in the table below as percent increase in flowering over untreated controls.
From the data reported in Table VIII below it can be seen that the compounds of the present invention applied at rates of from 0.06 to 0.25 kg/ha enhance flowering of treated plant more than 10% over untreated controls. This response is particularly desirable for treatment of flowering varieties of ornamental plants as well as agronomic crops.

barley (Hordeum vulgare) = assay: Dwarfing of barley (plant height, greenhouse, foliar spray); type: in vivo; conditions: three weeks after spraying
Experimental: as §1, §2, §3, §4, §5

[4] = rate 0.125 kg/ha, listed as Methylamine salt with 2,4,6-tribromo-N--aci-nitroaniline

## 3-(p-Fluorophenyl)-1,2-dimethyl-3,5-diphenylpyrazolium salt with 2,4,6-tribromo-N--aci-nitroaniline
[1]; rate 0.125 kg/ha
  % Increase in Plant Canopy over untreated controls: normal
  % Increase in axillary branching over untreated controls: normal
[1]; rate 0.5 kg/ha
  % Increase in axillary branching over untreated controls: normal

## Cc1cc(C)c([N-][N+](=O)[O-])c(C)c1.Cn1c(-c2ccccc2)cc(-c2ccccc2)[n+]1C [1,2-Dimethyl-3,5-diphenylpyrazolium salt with 2,4,6-Trimethyl-N--aci-nitroaniline]
[2]; rate 0.125 kg/ha
  % Reduction in Plant Height over untreated controls: slight increase
[2]; rate 0.25 kg/ha
  % Reduction in Plant Height over untreated controls: > 5%
[2]; rate 0.5 kg/ha
  % Reduction in Plant Height over untreated controls: > 10%
[1]; rate 0.125 kg/ha
  % Increase in Plant Canopy over untreated controls: normal
  % Increase in axillary branching over untreated controls: normal

## Cn1c(-c2ccccc2)cc(-c2ccccc2)[n+]1C.O=[N+]([O-])[N-]c1c(Br)cc(Br)cc1I [1,2-Dimethyl-3,5-diphenylpyrazolium salt with 2,4-dibromo-6-iodo-N--aci-nitroaniline]
[2]; rate 0.125 kg/ha
  % Reduction in Plant Height over untreated controls: > 10%
[2]; rate 0.25 kg/ha
  % Reduction in Plant Height over untreated controls: > 15%
[2]; rate 0.5 kg/ha
  % Reduction in Plant Height over untreated controls: > 25%
[3]; rate 0.5 kg/ha
  % Increase in Flowering over untreated controls: normal

## Cn1c(-c2ccccc2)cc(-c2ccccc2)[n+]1C.O=[N+]([O-])[N-]c1c(Br)cc(Cl)cc1Br [1,2-Dimethyl-3,5-diphenylpyrazolium salt with 2,6-dibromo-4-chloro-N--aci-nitroaniline]
[2]; rate 0.125 kg/ha
  % Reduction in Plant Height over untreated controls: > 25%
[2]; rate 0.25 kg/ha
  % Reduction in Plant Height over untreated controls: > 30%
[2]; rate 0.5 kg/ha
  % Reduction in Plant Height over untreated controls: > 40%
[1]; rate 0.125 kg/ha
  % Increase in Plant Canopy over untreated controls: normal

## O=[N+]([O-])Nc1c(Br)cc(Br)cc1Br [1-Hexadecylpyridinium salt with 2,4,6-tribromo-N--aci-nitroa]
[1]; rate 0.125 kg/ha
  % Increase in Plant Canopy over untreated controls: normal
  % Increase in axillary branching over untreated controls: normal
[1]; rate 0.25 kg/ha
  % Increase in axillary branching over untreated controls: normal
[1]; rate 0.5 kg/ha
  % Increase in axillary branching over untreated controls: normal

## O=[N+]([O-])Nc1c(Br)cc(Br)cc1Br [2,4,6-Tribromo-N--nitroaniline tetrabutyl, ammonium salt]
Barley (Hordeum vulgare); rate 0.17 kg/ha, ammonium salt
  % Reduction in Plant Height over untreated controls: 10.5%
Barley (Hordeum vulgare); rate 1.5 kg/ha, ammonium salt
  % Reduction in Plant Height over untreated controls: 15.8%

## O=[N+]([O-])Nc1c(Br)cc(Br)cc1Br [2,4,6-Tribromo-N--nitroaniline with ammonia (1:1)]
Barley (Hordeum vulgare); rate 0.50 kg/ha
  % Reduction in Plant Height over untreated controls: 16.3%
Barley (Hordeum vulgare); rate 1.5 kg/ha
  % Reduction in Plant Height over untreated controls: 15.3%
[2]; rate 0.5 kg/ha
  % Reduction in Plant Height over untreated controls: > 60%
[2]; rate 2.0 kg/ha
  % Reduction in Plant Height over untreated controls: > 60%
[1]; rate 0.5 kg/ha
  % Increase in Plant Canopy over untreated controls: Injury

## O=[N+]([O-])Nc1c(Br)cc(Br)cc1Br [2,4,6-Tribromo-N--nitroaniline with dibenzylamine]
[1]; rate 0.125 kg/ha
  % Increase in Plant Canopy over untreated controls: normal
  % Increase in axillary branching over untreated controls: normal
[1]; rate 0.25 kg/ha
  % Increase in axillary branching over untreated controls: normal
[3]; rate 0.125 kg/ha
  % Increase in Flowering over untreated controls: normal

## O=[N+]([O-])Nc1c(Br)cc(Br)cc1Br [2,4,6-Tribromo-N--nitroaniline with dodecylamine]
[1]; rate 0.125 kg/ha
  % Increase in Plant Canopy over untreated controls: normal
  % Increase in axillary branching over untreated controls: normal
[3]; rate 0.125 kg/ha
  % Increase in Flowering over untreated controls: normal

## O=[N+]([O-])Nc1c(Br)cc(Br)cc1Br [2,4,6-Tribromo-N--nitroaniline with methylamine (1:1)]
Barley (Hordeum vulgare); rate 0.11 kg/ha
  % Reduction in Plant Height over untreated controls: 10%
Barley (Hordeum vulgare); rate 0.56 kg/ha
  % Reduction in Plant Height over untreated controls: > 50%
Barley (Hordeum vulgare); rate 2.24 kg/ha
  % Reduction in Plant Height over untreated controls: > 50%
[2]; rate 0.5 kg/ha
  % Reduction in Plant Height over untreated controls: > 60%
[2]; rate 2.0 kg/ha
  % Reduction in Plant Height over untreated controls: > 60%
[1]; [4]
  % Increase in Plant Canopy over untreated controls: normal
  % Increase in axillary branching over untreated controls: normal
[1]; rate 0.25 kg/ha, listed as Methylamine salt with 2,4,6-tribromo-N--aci-nitroaniline
  % Increase in axillary branching over untreated controls: normal
[1]; rate 0.5 kg/ha, listed as Methylamine salt with 2,4,6-tribromo-N--aci-nitroaniline
  % Increase in axillary branching over untreated controls: normal

## O=[N+]([O-])Nc1c(Br)cc(Br)cc1Br [2,4,6-Tribromo-N--nitroaniline with octylamine (1:1)]
Barley (Hordeum vulgare); rate 0.17 kg/ha
  % Reduction in Plant Height over untreated controls: 10.5%
Barley (Hordeum vulgare); rate 0.50 kg/ha
  % Reduction in Plant Height over untreated controls: 13.0%
Barley (Hordeum vulgare); rate 1.5 kg/ha
  % Reduction in Plant Height over untreated controls: 11.1%
[1]; rate 0.125 kg/ha, octylamine salt
  % Increase in axillary branching over untreated controls: normal
[1]; rate 0.5 kg/ha, octylamine salt
  % Increase in Plant Canopy over untreated controls: slight reduction

## O=[N+]([O-])Nc1c(Br)cc(Br)cc1Br [2,4,6-Tribromo-N--nitroaniline, Calcium salt]
[1]; rate 0.25 kg/ha, listed as 2,4,6-Tribromo-N--aci-nitroaniline calcium salt (2:1), Calcium salt
  % Increase in Plant Canopy over untreated controls: slight reduction
[1]; rate 0.5 kg/ha, listed as 2,4,6-Tribromo-N--aci-nitroaniline calcium salt (2:1), Calcium salt
  % Increase in Plant Canopy over untreated controls: moderate reduction

## O=[N+]([O-])Nc1c(Br)cc(Br)cc1Br [2,4,6-Tribromo-N--nitroaniline, diisopropylamine (1:1)salt]
[1]; rate 0.5 kg/ha
  % Increase in Plant Canopy over untreated controls: slight reduction

## O=[N+]([O-])Nc1c(Br)cc(Br)cc1Br [2,4,6-Tribromo-N--nitroaniline, magnesium salt]
[1]; rate 0.25 kg/ha, listed as 2,4,6-Tribromo-N--aci-nitroaniline, magnesium salt (2:1)
  % Increase in Plant Canopy over untreated controls: moderate reduction
[1]; rate 0.5 kg/ha, listed as 2,4,6-Tribromo-N--aci-nitroaniline, magnesium salt (2:1)
  % Increase in Plant Canopy over untreated controls: moderate reduction

## O=[N+]([O-])Nc1c(Br)cc(Br)cc1Br [2,4,6-Tribromo-N--nitroaniline, triethylamine (1:1)salt]
[1]; rate 0.125 kg/ha
  % Increase in axillary branching over untreated controls: normal
[1]; rate 0.25 kg/ha
  % Increase in Plant Canopy over untreated controls: slight reduction
[1]; rate 0.5 kg/ha
  % Increase in Plant Canopy over untreated controls: slight reduction

## Cn1c(-c2ccccc2)cc(C2CCCCC2)[n+]1C.O=[N+]([O-])[N-]c1c(Br)cc(Br)cc1Br [3-Cyclohexyl-1,2-dimethyl-5-phenylpyrazolium salt with 2,4,6-tribromo-N--aci-nitroaniline]
[2]; rate 0.125 kg/ha
  % Reduction in Plant Height over untreated controls: > 10%
[2]; rate 0.25 kg/ha
  % Reduction in Plant Height over untreated controls: > 20%
[2]; rate 0.5 kg/ha
  % Reduction in Plant Height over untreated controls: > 40%
[1]; rate 0.5 kg/ha
  % Increase in Plant Canopy over untreated controls: slight reduction

## O=[N+]([O-])Nc1c(Br)cc(Br)cc1Br [Benzyltriethylammonium salt with 2,4,6-tribromo-N--aci-nitro] [Benzyltriethylammonium salt with 2,4,6-tribromo-N--aci-nitroaniline]
[2]; rate 0.125 kg/ha
  % Reduction in Plant Height over untreated controls: > 25%
[2]; rate 0.25 kg/ha
  % Reduction in Plant Height over untreated controls: > 35%
[2]; rate 0.5 kg/ha
  % Reduction in Plant Height over untreated controls: > 50%
[1]; rate 0.125 kg/ha
  % Increase in Plant Canopy over untreated controls: normal
  % Increase in axillary branching over untreated controls: normal
[1]; rate 0.25 kg/ha
  % Increase in axillary branching over untreated controls: normal

## CCCC[P+](CCCC)(CCCC)Cc1ccc(Cl)cc1Cl.O=[N+]([O-])[N-]c1c(Br)cc(Br)cc1Br [Tributyl(2,4-dichlorobenzyl) phosphonium salt with 2,4,6-tribromo-N--aci-nitroaniline]
[1]; rate 0.125 kg/ha
  % Increase in Plant Canopy over untreated controls: normal
  % Increase in axillary branching over untreated controls: normal
[1]; rate 0.5 kg/ha
  % Increase in Plant Canopy over untreated controls: moderate reduction
